# Assay results reported in ChEMBL document CHEMBL1128809 (Bioorg Med Chem Lett, 1995).
# Tests used:
# [1] = target: Protein kinase C alpha type (Homo sapiens, UniProt P17252); assay: Inhibition of Protein kinase C alpha
# [2] = target: Protein kinase C gamma type (Homo sapiens, UniProt P05129); assay: Inhibition of Protein kinase C gamma
# [3] = target: Protein kinase C eta type (Homo sapiens, UniProt P24723); assay: Inhibition of Protein kinase C eta
# [4] = target: T1, Protein kinase C beta type (Homo sapiens, UniProt P05771); assay: Inhibition of Protein kinase C beta 1
# [5] = target: T1, Protein kinase C beta type; assay: Inhibition of Protein kinase C beta 2
# [6] = target: Protein kinase C delta type (Homo sapiens, UniProt Q05655); assay: Inhibition of Protein kinase C delta
# [7] = target: T2, Protein kinase C zeta type (Homo sapiens, UniProt Q05513); assay: Inhibition of Protein kinase C zeta
# T2 sequence (Q05513 whole entry): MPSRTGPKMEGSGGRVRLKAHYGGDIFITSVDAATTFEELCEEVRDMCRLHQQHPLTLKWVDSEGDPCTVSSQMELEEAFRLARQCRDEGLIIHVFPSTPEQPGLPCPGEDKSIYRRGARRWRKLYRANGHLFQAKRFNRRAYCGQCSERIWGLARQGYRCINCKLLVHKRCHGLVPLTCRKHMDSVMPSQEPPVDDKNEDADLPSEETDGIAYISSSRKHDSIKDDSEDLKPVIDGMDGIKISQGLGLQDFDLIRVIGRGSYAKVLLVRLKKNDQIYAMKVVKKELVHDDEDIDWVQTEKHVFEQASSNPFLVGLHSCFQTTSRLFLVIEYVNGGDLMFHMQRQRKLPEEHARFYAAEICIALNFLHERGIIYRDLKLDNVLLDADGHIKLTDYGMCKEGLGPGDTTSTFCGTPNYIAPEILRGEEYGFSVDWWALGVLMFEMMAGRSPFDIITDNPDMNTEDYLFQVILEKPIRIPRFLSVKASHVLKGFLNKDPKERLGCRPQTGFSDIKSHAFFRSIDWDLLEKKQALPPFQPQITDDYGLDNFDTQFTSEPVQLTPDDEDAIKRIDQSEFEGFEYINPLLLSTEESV
# [8] = Stability in human plasma 2 hr after incubation expressed as percent concentration; format: ADME, cell-free; conditions: read-out: Concentration
# [9] = target: T3, Protein kinase C epsilon type (Homo sapiens, UniProt Q02156); assay: Inhibition of Protein kinase C epsilon
# T3 sequence (Q02156 whole entry): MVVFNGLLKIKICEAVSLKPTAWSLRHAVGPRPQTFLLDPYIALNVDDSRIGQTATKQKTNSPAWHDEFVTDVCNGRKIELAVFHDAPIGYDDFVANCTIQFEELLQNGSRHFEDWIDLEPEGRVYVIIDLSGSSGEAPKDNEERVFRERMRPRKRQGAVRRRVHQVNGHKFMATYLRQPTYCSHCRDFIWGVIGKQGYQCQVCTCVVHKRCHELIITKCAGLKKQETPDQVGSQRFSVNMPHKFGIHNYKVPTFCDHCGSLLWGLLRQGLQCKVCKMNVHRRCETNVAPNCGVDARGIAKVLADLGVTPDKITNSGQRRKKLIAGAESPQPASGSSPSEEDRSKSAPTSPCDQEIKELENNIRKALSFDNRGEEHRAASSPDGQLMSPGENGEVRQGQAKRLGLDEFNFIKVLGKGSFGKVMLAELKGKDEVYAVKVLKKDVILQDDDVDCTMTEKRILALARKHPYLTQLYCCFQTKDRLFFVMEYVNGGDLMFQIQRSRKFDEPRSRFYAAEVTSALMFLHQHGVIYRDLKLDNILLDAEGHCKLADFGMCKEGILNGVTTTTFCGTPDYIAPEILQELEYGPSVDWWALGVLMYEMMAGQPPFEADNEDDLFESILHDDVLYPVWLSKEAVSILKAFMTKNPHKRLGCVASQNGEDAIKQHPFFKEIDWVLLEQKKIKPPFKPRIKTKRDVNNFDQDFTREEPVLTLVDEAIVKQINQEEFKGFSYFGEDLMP
# [10] = Stability in human plasma 4 hr after incubation expressed as percent concentration; format: ADME, cell-free; conditions: read-out: Concentration
# Sequence of Protein kinase C eta type (P24723 whole entry): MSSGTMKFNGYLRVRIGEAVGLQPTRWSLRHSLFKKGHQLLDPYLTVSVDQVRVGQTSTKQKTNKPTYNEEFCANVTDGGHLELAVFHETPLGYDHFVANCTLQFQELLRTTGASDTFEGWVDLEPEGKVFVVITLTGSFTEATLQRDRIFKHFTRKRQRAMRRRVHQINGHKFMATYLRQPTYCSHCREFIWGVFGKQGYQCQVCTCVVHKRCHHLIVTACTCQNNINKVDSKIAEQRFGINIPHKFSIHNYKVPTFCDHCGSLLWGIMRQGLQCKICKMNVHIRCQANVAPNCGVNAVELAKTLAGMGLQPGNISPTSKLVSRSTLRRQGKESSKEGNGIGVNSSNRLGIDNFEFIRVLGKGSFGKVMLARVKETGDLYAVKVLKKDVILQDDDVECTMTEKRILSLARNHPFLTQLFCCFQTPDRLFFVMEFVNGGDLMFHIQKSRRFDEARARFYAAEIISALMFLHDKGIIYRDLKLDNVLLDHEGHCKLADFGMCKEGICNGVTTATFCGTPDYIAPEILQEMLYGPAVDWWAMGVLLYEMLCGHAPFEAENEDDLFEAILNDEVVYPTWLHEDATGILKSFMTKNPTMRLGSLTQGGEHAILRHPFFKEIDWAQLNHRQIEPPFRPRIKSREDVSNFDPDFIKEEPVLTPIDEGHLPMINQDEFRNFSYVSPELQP
# Sequence of Protein kinase C delta type (Q05655 whole entry): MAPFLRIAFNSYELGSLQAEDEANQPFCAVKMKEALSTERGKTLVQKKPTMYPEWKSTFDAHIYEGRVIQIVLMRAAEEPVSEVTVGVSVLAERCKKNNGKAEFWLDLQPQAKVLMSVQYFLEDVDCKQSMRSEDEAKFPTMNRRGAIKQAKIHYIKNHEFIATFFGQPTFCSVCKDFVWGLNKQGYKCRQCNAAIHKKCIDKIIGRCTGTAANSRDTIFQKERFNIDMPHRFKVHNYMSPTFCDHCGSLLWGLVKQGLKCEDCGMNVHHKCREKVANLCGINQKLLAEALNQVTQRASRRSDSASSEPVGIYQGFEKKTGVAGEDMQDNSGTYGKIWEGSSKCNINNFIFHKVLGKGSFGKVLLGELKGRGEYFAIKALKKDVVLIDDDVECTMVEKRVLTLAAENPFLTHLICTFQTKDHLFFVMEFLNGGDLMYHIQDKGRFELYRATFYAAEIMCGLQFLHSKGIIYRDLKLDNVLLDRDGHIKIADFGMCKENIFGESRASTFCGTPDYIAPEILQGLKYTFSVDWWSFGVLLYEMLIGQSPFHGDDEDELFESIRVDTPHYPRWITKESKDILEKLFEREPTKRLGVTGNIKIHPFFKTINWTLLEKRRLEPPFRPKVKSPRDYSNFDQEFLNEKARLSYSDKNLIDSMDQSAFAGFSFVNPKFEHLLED
# T1 sequence (P05771 whole entry): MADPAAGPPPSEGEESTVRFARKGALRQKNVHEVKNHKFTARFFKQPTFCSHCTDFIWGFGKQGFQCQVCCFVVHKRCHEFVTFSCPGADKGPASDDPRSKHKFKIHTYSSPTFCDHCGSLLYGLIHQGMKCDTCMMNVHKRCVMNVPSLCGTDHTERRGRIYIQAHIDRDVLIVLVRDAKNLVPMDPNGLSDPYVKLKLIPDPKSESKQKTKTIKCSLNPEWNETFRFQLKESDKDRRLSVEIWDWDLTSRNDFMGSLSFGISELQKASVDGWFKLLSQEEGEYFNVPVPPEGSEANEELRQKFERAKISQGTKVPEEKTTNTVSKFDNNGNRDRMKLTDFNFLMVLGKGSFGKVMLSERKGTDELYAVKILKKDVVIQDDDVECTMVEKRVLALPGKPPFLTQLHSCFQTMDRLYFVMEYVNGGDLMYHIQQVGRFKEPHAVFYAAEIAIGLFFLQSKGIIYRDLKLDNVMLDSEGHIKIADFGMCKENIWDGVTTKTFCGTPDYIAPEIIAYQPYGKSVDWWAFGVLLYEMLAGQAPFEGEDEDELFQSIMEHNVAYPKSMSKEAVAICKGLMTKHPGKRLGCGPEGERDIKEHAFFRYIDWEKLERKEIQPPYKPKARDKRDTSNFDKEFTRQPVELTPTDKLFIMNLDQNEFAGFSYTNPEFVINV
SMILES,IC50 [1] [nM],IC50 [2] [nM],IC50 [3] [nM],IC50 [4] [nM],IC50 [5] [nM],IC50 [6] [nM],IC50 [7] [nM],remaining at 2 h [8] [%],IC50 [9] [nM],remaining at 4 h [10] [%]
O=C(N[C@@H]1CCC[C@H]1OC(=O)c1cc(O)c(C(=O)c2c(O)cccc2C(=O)O)c(O)c1)c1ccc(O)cc1,,,1,,,1,,,,
O=C(N[C@@H]1CNC[C@H]1NC(=O)c1cc(O)c(C(=O)c2c(O)cccc2C(=O)O)c(O)c1)c1ccc(O)cc1,920,330,3,220,330,12,9600,95,80,104
O=C(NC[C@@H]1CCC[C@H]1NC(=O)c1ccc(O)cc1)c1cc(O)c(C(=O)c2c(O)cccc2C(=O)O)c(O)c1,35000,46000,2300,17000,4900,330,> 50000,,> 50000,
O=C(N[C@@H]1CCCNC[C@H]1NC(=O)c1ccc(O)cc1)c1cc(O)c(C(=O)c2c(O)cccc2C(=O)O)c(O)c1,3200,420,50,630,1200,220,> 50000,,670,
O=C(N[C@@H]1CCC[C@H]1OCc1cc(O)c(C(=O)c2c(O)cccc2C(=O)O)c(O)c1)c1ccc(O)cc1,460,1100,30,430,290,20,> 50000,100,370,100
CN(C(=O)c1cc(O)c(C(=O)c2c(O)cccc2C(=O)O)c(O)c1)[C@H]1CCCNC[C@H]1NC(=O)c1ccc(O)cc1,> 50000,> 50000,31000,> 50000,> 50000,42000,> 50000,,> 50000,

# Second part, the molecule after the results:
IC50 [1] [nM],IC50 [2] [nM],IC50 [3] [nM],IC50 [4] [nM],IC50 [5] [nM],IC50 [6] [nM],IC50 [7] [nM],remaining at 2 h [8] [%],IC50 [9] [nM],remaining at 4 h [10] [%],SMILES
67,30,20,30,30,23,,,,,O=C(N[C@@H]1CNCCC[C@H]1OC(=O)c1cc(O)c(C(=O)c2c(O)cccc2C(=O)O)c(O)c1)c1ccc(O)cc1 (racemic) [BALANOL]
220,40,20,120,70,30,,,50,,C[C@@]1(OC(=O)c2cc(O)c(C(=O)c3c(O)cccc3C(=O)O)c(O)c2)CCCNC[C@H]1NC(=O)c1ccc(O)cc1
30,10,3,10,10,16,5900,,,,O=C(N[C@@H]1CNCCC[C@H]1OC(=O)c1cc(O)c(C(=O)c2c(O)cccc2C(=O)O)c(O)c1)c1ccc(O)cc1 [BALANOL]
40,300,20,40,30,20,> 50000,,340,,O=C(N[C@@H]1CCC[C@H]1COC(=O)c1cc(O)c(C(=O)c2c(O)cccc2C(=O)O)c(O)c1)c1ccc(O)cc1
,12,,10,,,6800,88,,103,O=C(N[C@@H]1CNC[C@H]1OC(=O)c1cc(O)c(C(=O)c2c(O)cccc2C(=O)O)c(O)c1)c1ccc(O)cc1
